What all share (experiment): DTP human tumour cell line panel, 48 h
Assay [1] has as its system A498 renal.
Assay [2] concerns HCT-15 colon.
Assay [3] relates to LOX IMVI melanoma.
Assay [4] relates to MDA-MB-231 breast.
In assay [5] the test system is MOLT-4 leukemia.
Assay [6] relates to NCI-H226 lung.
For assay [7], the system named is NCI-H522 lung.
In assay [8] the test system is OVCAR-5 ovarian.
In assay [9] the test system is OVCAR-8 ovarian.
For assay [10], the system named is TK-10 renal.

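Interpolation was linear, between the two tested concentrations surrounding the appropriate level; five concentrations were tested over 48 hours in 96-well plates. GI50: concentration for 50% inhibition of growth. At the TGI there is no net growth.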

As for `CC(=O)N[C@H](C(=O)N[C@@H](CCCNC(=N)N)C(=O)N[C@@H](CCCCN)C(=O)N[C@@H](CCCNC(=N)N)C(=O)N[C@]1(C)CCCCCC/C=C\CCC[C@@](C)(C(=O)N[C@@H](CCCNC(=N)N)C(=O)N[C@@H](CCC(=O)O)C(=O)N[C@@H](CC(C)C)C(=O)N[C@H](C(=O)N[C@@H](CCC(=O)O)C(N)=O)C(C)C)NC(=O)[C@H](CCC(N)=O)NC(=O)[C@H](CC(C)C)NC(=O)[C@H](CC(C)C)NC(=O)[C@H](CCCNC(=N)N)NC(=O)[C@H](CCCNC(=N)N)NC(=O)[C@H](CC(C)C)NC1=O)C(C)C`, the GI50 in assay [1] is 9.32 µM; in assay [2] it was 3.02 µM; in assay [3] it was 10.1 µM; in assay [4] it was 3.68 µM; in assay [5], 8.1 µM; in [6] it was 2.43 µM. Moreover, the GI50 was 2.66 µM in assay [7], 11.5 µM in assay [8], 1.6 µM in assay [9] and 1.6 µM in assay [10]. For the same molecule, the TGI in assay [1] is 22.4 µM; in assay [2] it was 47.3 µM; in [3], 43 µM; in assay [4], more than 50 µM; in [5], 29.4 µM; in assay [6] it was 28.7 µM. Moreover, the TGI in [7] was more than 50 µM; in assay [8], 41.2 µM; in [9] it was more than 50 µM; in [10] it was 8.8 µM.
Take `Cc1cc(Nc2nc(SCc3ccc(C(=O)Nc4ccc(F)cc4N)cc3)nn3cccc23)n[nH]1`: the GI50 was 0.623 µM in assay [1]; 0.424 µM in [2]; 0.665 µM in [3]; 0.854 µM in [4]; 0.508 µM in assay [5]; 2.7 µM in assay [6]. Moreover, the GI50 in [7] is 0.0488 µM; in assay [8], 0.657 µM; in assay [9] it was 0.483 µM; in assay [10], 1.21 µM. For the same molecule, the concentration for total growth inhibition (TGI) in [1] is 5.61 µM; in assay [2] it was more than 100 µM; in assay [3] it was more than 100 µM; in assay [4], more than 100 µM; in assay [5], 13.5 µM; in [6] it was 20.5 µM. The TGI is 0.565 µM in assay [7], more than 100 µM in assay [8], 88 µM in [9] and 7.33 µM in assay [10].
Turning to `COc1ccccc1-c1cc(=O)c2ccc(C)nc2[nH]1`, the TGI in [1], in assay [2], in assay [3], in assay [4], in assay [5] and in assay [6] was more than 100 µM throughout. Besides, the TGI in [7], in assay [8], in assay [9] and in assay [10] was more than 100 µM in each case.
As to `Cc1cc2c(Br)cc(Br)c(O)c2nc1C(=O)c1ccccc1`, the TGI is more than 100 µM in [1]; more than 45.5 µM in assay [2]; more than 86 µM in assay [3]; 78.5 µM in assay [4]; more than 100 µM in assay [5]; more than 79.2 µM in assay [6]. The TGI in assay [7] is more than 100 µM; in assay [8] it was more than 68.5 µM; in assay [9] it was more than 100 µM; in assay [10], more than 100 µM.
Consider `COc1ccccc1/C=C/C(=O)/C=C/c1ccccc1O`, for which the GI50 in [1] is 1.8 µM; in [2] it was 0.351 µM; in assay [3], 0.724 µM; in [4], 1.67 µM; in [5] it was 0.163 µM; in [6], 1.71 µM. Besides, the GI50 in assay [7] was 0.95 µM; in [8], 2.16 µM; in assay [9], 1.26 µM; in assay [10], 2.72 µM. The TGI in assay [1] was found to be 3.32 µM; in assay [2] it was 1.64 µM; in assay [3] it was 2.01 µM; in assay [4], 4.26 µM; in assay [6], 4.12 µM; in assay [7], 2.21 µM. For the same molecule, the TGI in assay [8] amounted to 4.39 µM; in [9], 10.4 µM; in assay [10] it was 5.74 µM.
Regarding `Cc1ccccc1Nc1nc2c(s1)C(=O)c1ccccc1C2=O`, the total growth inhibition concentration (TGI) in [1] was 39.5 µM; in [2], 10.7 µM; in assay [3] it was 5.27 µM; in [4] it was 15 µM; in assay [5], more than 24.3 µM; in assay [6], 32.8 µM. The TGI is 7.52 µM in assay [7], 38 µM in assay [8], 9.05 µM in assay [9] and 38.4 µM in assay [10].
Consider `OB1OCc2cc(/C=C/c3cccc(C(F)(F)F)c3)ccc21`, for which the GI50 was 1.13 µM in [1]; 1.33 µM in assay [2]; 0.302 µM in [3]; 2.62 µM in [4]; 0.454 µM in [5]; 2.52 µM in assay [6]. For the same molecule, the GI50 in [7] was 0.991 µM; in [8] it was 5.15 µM; in assay [9], 0.918 µM; in [10] it was 2.46 µM. In addition, the TGI is 9.22 µM in assay [1]; more than 100 µM in assay [2]; 1.25 µM in [3]; 11.1 µM in assay [4]; 12.9 µM in [5]; 56.4 µM in assay [6]. The TGI is 87.9 µM in assay [7], more than 100 µM in assay [8], 24.2 µM in assay [9] and 34.1 µM in assay [10].
`OC(CN1CC1)C(O)CN1CC1` (centres undefined): the GI50 in assay [1], in assay [2], in [3], in assay [4], in [5] and in assay [6] was more than 50 µg/mL each time. The GI50 in assay [7], in assay [8], in assay [9] and in [10] was more than 50 µg/mL in each case. Further, the TGI in assay [1], in assay [2], in [3], in assay [4], in [5] and in [6] was more than 50 µg/mL in each case. The TGI in assay [7], in assay [8], in assay [9] and in assay [10] was more than 50 µg/mL each time.
Take `CC(=O)NNc1nc(C)c(C(=O)NNC(=O)C(=O)Nc2nc3ccc([N+](=O)[O-])cc3s2)s1`: the TGI is more than 70.8 µM in [1]; more than 100 µM in assay [2]; more than 100 µM in assay [3]; more than 100 µM in assay [4]; more than 100 µM in assay [5]; more than 100 µM in assay [6]. The TGI is 61.4 µM in assay [7], more than 100 µM in assay [8], more than 100 µM in [9] and more than 100 µM in assay [10].

The values are drawn from PubChem BioAssay (NCI).
